Data: PubChem BioAssay (NCI)
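Step 1: Grow cells in 96-well plates. Step 2: Expose to compound for 48 hours at 5 concentrations. Step 3: Interpolate endpoints linearly; if unreached, use highest concentration. TGI: total growth inhibition.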

Legend:
Test in all cases: NCI-60 cell line screen, 48 h
[1] = test system: U251 CNS
[2] = test system: SK-MEL-5 melanoma
[3] = test system: SNB-19 CNS
[4] = test system: A549 NSCLC
[5] = test system: LXFL 529 NSCLC
[6] = test system: SF-268 CNS
[7] = test system: CAKI-1 renal
[8] = test system: HCC-2998 colon
[9] = test system: LOX IMVI melanoma
[10] = test system: SNB-78 CNS
[11] = test system: HOP-62 NSCLC
[12] = test system: SW-620 colon
[13] = test system: HCT-116 colon
[14] = test system: SF-295 CNS
[15] = test system: UACC-62 melanoma
[16] = test system: MOLT-4 leukemia
[17] = test system: NCI-H226 lung
[18] = test system: 786-0 renal
[19] = test system: NCI-H460 lung
[20] = test system: OVCAR-8 ovarian
[21] = test system: CCRF-CEM leukemia
[22] = test system: IGROV1 ovarian
[23] = test system: ACHN renal
[24] = test system: UACC-257 melanoma
[25] = test system: RXF-631 renal
[26] = test system: SK-OV-3 ovarian
[27] = test system: EKVX NSCLC
[28] = test system: XF 498 CNS
[29] = test system: K-562 leukemia
[30] = test system: NCI-H522 lung
[31] = test system: SN12C renal
[32] = test system: HOP-92 NSCLC
[33] = test system: M14 melanoma
[34] = test system: KM12 colon
[35] = test system: SK-MEL-2 melanoma
[36] = test system: HL-60(TB) leukemia
[37] = test system: HCT-15 colon
[38] = test system: TK-10 renal
[39] = test system: NCI-H23 lung
[40] = test system: SK-MEL-28 melanoma
[41] = test system: HT29 colon
[42] = test system: OVCAR-5 ovarian
[43] = test system: SR leukemia
[44] = test system: RXF 393 renal
[45] = test system: UO-31 renal
[46] = test system: DMS 273 small cell lung

Measured: TGI

CN=c1ssc(/N=C(\SC)N(C)C)[n+]1C
> 100 µM: [1] | [2] | [3] | [4] | [5] | [6] | [7] | [8] | [9] | [10] | [11] | [12] | [13] | [14] | [15] | [16] | [17] | [18] | [19] | [20] | [21] | [22] | [23] | [24] | [25] | [26] | [27] | [28] | [29] | [30] | [31] | [32] | [33] | [34] | [35] | [36] | [37] | [38] | [39] | [40] | [41] | [42] | [43] | [44] | [45] | [46]
